Assay results published in patent publication US10561704B2, “Compositions and methods for treating neuropsychiatric disorders using an endothelin-B receptor agonist” (MIDWESTERN UNIVERSITY, priority 2013, dated 2020).
Marks after values point to notes of the source that are not given here. *1 amine or outer side, *2 acyl side, *3 side chain or, on linkers, in order; H or OH if unused. Where no end group is shown, it is not given here. Suc = O=C(CCC(=O)[*:2])[*:1]

Experiments:
Assay type in all cases: in vivo
[1] = test system: middle cerebral artery occluded rats; assay: Infarct volume and edema 7 days post middle cerebral artery occlusion
Experimental: FIG. 12: Two mm coronal sections of brains stained with TTC to visualize the infarct area 7 days post middle cerebral artery occlusion (red indicates normal tissue and white indicates infarct tissue). Representative slices from groups are shown. IRL-1620 (5 μg/kg, IV) or isotonic saline (1 ml/kg, IV) was injected at 2, 4, and 6 hr post MCAO. BQ-788 (1 mg/kg, IV) was administered once 15 min prior to the first injection of IRL-1620 or vehicle.

[2] = test system: middle cerebral artery occluded rats; assay: Neurological deficit and motor function post middle cerebral artery occlusion; conditions: for Distance Traveled (cm) / Foot Fault Error (%) / Grip Test (6 point scale) / Neurological Evaluation (6 point scale) / Rota Rod Duration / Vertical Breaks: MCAO rats
Experimental: Effect of IRL-1620 on neurological deficit following focal cerebral ischemia: In a preliminary study, the effect of selectively activating ETB receptors by IRL-1620 following permanent middle cerebral artery occlusion in rats was determined.

[3] = test system: middle cerebral artery occluded rats; assay: Angiogenesis and neurogenesis markers (ETB, NeuN, BrdU, VEGF, NGF) following cerebral ischemia
Experimental: FIG. 16: Effect of ETB receptor agonist, IRL-1620 (three doses of 5 μg/kg, i.v., at 2, 4 and 6 h post ischemia), and antagonist, BQ788 (1 mg/kg, i.v.), on neuronal nuclei (NeuN) post middle cerebral artery occlusion. (A) Representative image of the cortex of an IRL-1620-treated animal 1 week following MCAO, stained for the ETB receptor (green) and NeuN (red). Scale bar=100 μm. (B) Representative image of the striatum of an IRL-1620-treated animal 1 week following MCAO, stained for the ETB receptor (green) and NeuN (red). Scale bar=10 μm. (C) Number of neuronal nuclei per 100 μm^2 in the cortex, striatum, and subventricular zone of middle cerebral artery occluded rats at 24 h after infarct. *P<0.05 vs. sham. ^#P<0.01 vs. MCAO+vehicle. ^@P<0.0001 vs. MCAO+IRL-1620. (D) Number of neuronal nuclei per 100 μm^2 in the cortex, striatum, and subventricular zone of middle cerebral artery occluded rats at 1 week after infarct. Values are expressed as mean±SEM (n=5/group). *P<0.0001 vs. sham. ^#P<0.0001 vs. MCAO+vehicle. ^@P<0.0001 vs. MCAO+IRL-1620.
FIG. 17: Effect of ETB receptor agonist, IRL-1620 (3 doses of 5 μg/kg, i.v., at 2, 4 and 6 hours post ischemia), and antagonist, BQ788 (1 mg/kg, i.v.), on proliferating cells post middle cerebral artery occlusion. Representative image of the cortex of an IRL-1620-treated animal 1 week following MCAO depicting a cerebral blood vessel, stained for the ETB receptor (green) and BrdU (red). Scale bar=100 μm. […] Values are expressed as mean±SEM (n=5/group). *P<0.01 vs. sham. #P<0.0001 vs. MCAO+vehicle. @P<0.0001 vs. MCAO+IRL-1620.
FIG. 19: Effect of ETB receptor agonist, IRL-1620 (3 doses of 5 μg/kg, i.v., at 2, 4 and 6 hours post ischemia), and antagonist, BQ788 (1 mg/kg, i.v.), on vascular endothelial growth factor (VEGF) post middle cerebral artery occlusion. […] Values are expressed as mean±SEM (n=5/group). *P<0.01 vs. sham. #P<0.01 vs. MCAO+vehicle. @P<0.05 vs. MCAO+IRL-1620.
FIG. 21: Effect of ETB receptor agonist, IRL-1620 (3 doses of 5 μg/kg, i.v., at 2, 4 and 6 hours post ischemia), and antagonist, BQ788 (1 mg/kg, i.v.), on nerve growth factor (NGF) post middle cerebral artery occlusion. A. Representative image of the cortex of an IRL-1620-treated animal 1 week following MCAO, stained for the ETB receptor (green) and NGF (red). Scale bar=10 μm. B. Number of NGF+cells per 100 μm^2 in the cortex, striatum, and subventricular zone of middle cerebral artery occluded rats at 1 week after infarct. Values are expressed as mean±SEM (n=5/group). #P<0.0001 vs. MCAO+vehicle. @P<0.0001 vs. MCAO+IRL-1620.
Effect of IRL-1620 on angiogenesis and neurogenesis following cerebral ischemia in rats: Angiogenesis and neurogenesis are the driving forces for the neurovascular remodeling that is essential post-stroke to restore normal brain function (Hawkins and Davis, 2005). VEGF is an endogenous protein known for its ability to promote angiogenesis and enhance vascular permeability. Under hypoxic conditions such as cerebral ischemia, VEGF expression is induced in neurons, astrocytes and endothelial cells via hypoxia-inducible factor-1 (HIF-1) (Breier and Risau, 1996). Once expressed, VEGF initiates both direct and indirect neuroprotective actions, inhibiting apoptosis, stimulating neurogenesis and angiogenesis, increasing glucose uptake and activating antioxidants (Gora-Kupilas and Josko, 2005). It has been shown that intracerebroventricular (i.c.v.) administration of an ETB receptor agonist in normal rats stimulates production of VEGF and activates VEGF receptors in the brain, while, in cultured astrocytes, this agonist increases VEGF-A mRNA as well as BrdU incorporation (Koyama et al., 2012; Koyama et al., 2011). ETB receptor agonist, IRL-1620, has been shown in our previous studies, to provide significant neuroprotection at both 24 hours and 1 week following permanent cerebral ischemia. […]

| Molecule | Distance Traveled (cm) ([2]; Baseline) | Foot Fault Error (%) ([2]; Baseline) | Grip Test (6 point scale) ([2]; Baseline) | Neurological Evaluation (6 point scale) ([2]; Baseline) | Rota Rod Duration ([2]; Baseline) [s] | Vertical Breaks ([2]; Baseline) | Distance Traveled (cm) ([2]; Day 1) | Foot Fault Error (%) ([2]; Day 1) | Grip Test (6 point scale) ([2]; Day 1) | Neurological Evaluation (6 point scale) ([2]; Day 1) | Rota Rod Duration ([2]; Day 1) [s] | Vertical Breaks ([2]; Day 1) | Distance Traveled (cm) ([2]; Day 4) | Foot Fault Error (%) ([2]; Day 4) | Grip Test (6 point scale) ([2]; Day 4) | Neurological Evaluation (6 point scale) ([2]; Day 4) | Rota Rod Duration ([2]; Day 4) [s] | Vertical Breaks ([2]; Day 4) | Distance Traveled (cm) ([2]; Day 7) | Foot Fault Error (%) ([2]; Day 7) | other results |
| --- | --- | --- | --- | --- | --- | --- | --- | --- | --- | --- | --- | --- | --- | --- | --- | --- | --- | --- | --- | --- | --- |
| CCCC[C@@H](NC(=O)[C@@H](Cc1cn(C(=O)OC)c2ccccc12)NC(=O)[C@H](CC(C)(C)C)NC(=O)N1[C@H](C)CCC[C@@H]1C)C(=O)O [BQ788, reference compound] | 5141 ± 285 | 5.96 ± 1.75 | 3.33 ± 0.33 | 0 ± 0 | 102.00 ± 5.14 | 55.17 ± 3.74 | 1168 ± 417 | 52.12 ± 11.93*^@ % | 0.67 ± 0.33*^@ | 3.00 ± 0.58*^@ | 37.83 ± 20.87 | 5.33 ± 2.47 | 1246 ± 410 | 68.89 ± 12.27*^@ % | 0.33 ± 0.24 | 3.33 ± 0.62*^@ | 37.67 ± 14.92 | 4.33 ± 1.52 | 2280 ± 836 | 75.00 ± 17.67*^@ % | Edema ([1]; MCAO 7 days, BQ-788 followed by IRL-1620): 17.97±5.17%; Edema ([1]; MCAO 7 days, BQ-788 followed by vehicle): 17.02±3.17%; Infarct volume ([1]; MCAO 7 days, BQ-788 given with either vehicle or IRL-1620): did not reduce; Grip Test (6 point scale) ([2]; Day 7): 1.67 ± 0.62; Neurological Evaluation (6 point scale) ([2]; Day 7): 3.00 ± 0.82*^@; Rota Rod Duration ([2]; Day 7): 49.67 ± 17.56 s; Vertical Breaks ([2]; Day 7): 11.00 ± 3.97; Effects of IRL-1620 treatment (neurovascular remodeling) ([3]; pretreatment with BQ-788): blocked |
| Suc-Asp-Glu-Glu-Ala-Val-Tyr-Phe-Ala-His-Leu-Asp-Ile-Ile-Trp (Suc-DEEAVYFAHLDIIW) [IRL-1620] | 5073 ± 334 | 4.05 ± 1.31 | 3.86 ± 0.46 | 0 ± 0 | 113.29 ± 8.34 | 61.50 ± 4.94 | 1611 ± 325 | 18.85 ± 6.48 % | 2.71 ± 0.52 | 1.29 ± 0.36 | 78.71 ± 22.59 | 12.75 ± 4.76 | 2898 ± 451 | 14.00 ± 3.66 % | 2.33 ± 0.58 | 0.67 ± 0.22 | 97.33 ± 2.08 | 26.33 ± 2.08 | 3472 ± 732 | 8.28 ± 1.09 % | Edema: infarcted hemisphere larger than non-infarcted hemisphere ([1]; MCAO 7 days): 1.51±1.81%; Infarct volume ([1]; MCAO for 7 days, IRL-1620 5 μg/kg IV at 2, 4, 6 hr post MCAO): 54.06±14.12 mm^3; Reduction of infarct volume ([1]; chronic study, 1 week (Leonard et al., 2012)): 69.49%; Grip Test (6 point scale) ([2]; Day 7): 3.33 ± 0.22; Neurological Evaluation (6 point scale) ([2]; Day 7): 0.67 ± 0.22; Rota Rod Duration ([2]; Day 7): 123.67 ± 7.28 s; Vertical Breaks ([2]; Day 7): 34.33 ± 3.78; Neurological and motor function tests ([2]; preliminary study, 24 hours after permanent MCAO, vs vehicle-treated): significant improvement; Number of proliferating cells in the infarcted brain ([3]; 1 week after MCAO): increased number; VEGF-positive vessels/30 μm brain slice ([3]; 1 week following MCAO): 11.33±2.13; ETB receptor expression in cortex, striatum and SVZ ([3]; 24 hours post occlusion): increased; Neuronal numbers in cortex, striatum and SVZ ([3]; 24 hours post occlusion): preserved; Number of blood vessels labeled with VEGF ([3]; 24 hours post occlusion, vs vehicle treatment): enhanced; NGF-positive cells per 100 μm^2 ([3]; SVZ, 1 week after MCAO): 3.05±0.38 per 100 μm^2; NGF-positive cells per 100 μm^2 ([3]; cortex, 1 week after MCAO): 2.29±0.31 per 100 μm^2; NGF-positive cells per 100 μm^2 ([3]; striatum, 1 week after MCAO): 2.08±0.26 per 100 μm^2 |
